# Measurements published in publication PMC2600610, “Ir-LBP, an Ixodes ricinus Tick Salivary LTB4-Binding Lipocalin, Interferes with Host Neutrophil Function” (PLoS ONE, 2008).
# Assays:
# [1] = biological target: T1, Ir-LBP (Ixodes ricinus, UniProt B7ZDG7); test: Competitive binding: inhibition of 3H-LTB4 binding to Ir-LBP by eicosanoids; details: 2 h; for decrease of the binding of 1 nM 3H-LTB4 to Ir-LBP: competitor at 10 µM
# Experimental: The specificity of this binding was then evaluated by incubating Ir-LBP with increasing concentrations of different eicosanoids (LTB4, LTD4, LTC4, LTE4, 12(R)-hydroxyeicosatetraenoic acid (HETE), 15(S)-hydroxyperoxyeicosatetraenoic acid (HpETE), LTA4 methyl ester and 5 (S), 6 (R)-Lipoxin A4) in the presence of a fixed concentration of ^3H-LTB4 (Figure 1B). […] On the other hand, only at a very high concentration of 10 µM were LTD4, LTE4 and 12(R)-HETE able to decrease the binding of 1 nM of ^3H-LTB4 to Ir-LBP by approximately 30%. […] Furthermore, this interaction is reversible. The addition of an excess of cold LTB4 (10 µM) for 2 h displaces the binding between Ir-LBP and 1 nM of ^3H-LTB4 (data not shown). […] This binding may only be displaced by very high concentrations (10 µM versus nM) of eicosanoid analogs.
# (§1) The dissociation constant was measured in PBS (pH 7.4) using purified Ir-LBP and an increasing amount of ^3H-LTB4. Non-specific binding was determined by measuring bound radioactivity in the absence of Ir-LBP. Protein precipitation with polyethylene glycol 8000 was used to separate bound from free histamine. Protein-bound radioactivity was determined with a Wallac 1409 scintillation counter. Saturation experiments were analyzed by non-linear regression using the curve fitting program GraphPad Prism® (GraphPad software, San Diego, CA, U.S.A.), B = (Bmax [F])/KD+[F]), where B is the amount of bound ligand at equilibrium, Bmax is the maximum number of binding sites, [F] is the concentration of free ligand and KD is the ligand dissociation constant. Competitive binding assays were performed using purified Ir-LBP with 1 nM of ^3H-LTB4 and an increasing amount of unlabelled competitor for 2 h.
# [2] = system: neutrophils; set-up: method as in PMID 12770944, PMID 10588632; details: BLT1 antagonists; cited from earlier work
# [3] = biological target: T1, Ir-LBP; test: Saturation curve and Scatchard analysis for LTB4 binding to Ir-LBP (Figure 1A), ligand as substance; details: saturation curve, 3H-LTB4
# [4] = biological target: BLT1; set-up: method as in PMID 6097945, PMID 6323613, PMID 2823316; details: read-out: Kd of BLT1 for LTB4; cited from earlier work
# [5] = biological target: BLT2; set-up: method as in PMID 10934230; details: read-out: Kd of BLT2 for LTB4; cited from earlier work
# [6] = system: Human neutrophils; test: Neutrophil apoptosis assay (Annexin-V-FITC/PI, flow cytometry); assay type: cell-based; details: LTB4 10^-7 M, 24 h of culture
# Experimental: Human blood neutrophils were obtained from buffy coats (Transfusion Center, Liege, Belgium). Neutrophils were separated from mononuclear cells by density centrifugation (Histopaque; Sigma-Aldrich). Contaminating erythrocytes were removed from the neutrophil fraction by hypotonic lysis. Neutrophil purity, determined by counting cytospin preparations stained with Diff-Quick (Dade Behring), was always >95%. Neutrophils were cultured at a density of 2×10^6 cells/ml in RPMI-1640 supplemented with 1% glutamine, 10% FCS, 50 µg/ml streptomycin, and 50 IU/ml penicillin (all from Gibco BRL). Neutrophils were cultured in the absence or presence of 10^−7 M LTB4 (Sigma-Aldrich) and/or 0.2–2 µg/ml Ir-LBP.
# Apoptosis was assessed by staining with Annexin-V-FITC and propidium iodide (PI) using the Annexin-V-FLUOS staining kit (Roche), following the manufacturer's recommendations. Flow cytometry analyses were performed with a FACSAria™ (BD Biosciences).
# [7] = system: neutrophils; set-up: method as in PMID 9261334; details: BLT1 and BLT2 antagonist; cited from earlier work
# [8] = system: T2, R53T; test: Saturation binding of ^3H-LTB4 (PBS pH 7.4, PEG 8000 precipitation) to wild-type and mutant Ir-LBP expressed in 293T cells.; details: SD
# T2 construct: pCDNA3.1/V5-His-TOPO, expressed in 293T cells
# Source text: (§2) In order to determine which amino acids of Ir-LBP are involved in the binding to LTB4, we produced mutants designed on the basis of the dynamic model established in silico. […] For the interaction with the second hydroxyl group, the residue selected to be mutated is Arg 73. The choice was made on this residue because Glu 188 is conserved for all LIRs and should thus not be as specific as Arg 73; furthermore, Arg 53 is bridged to Arg 73 by an aspartic residue from the loop corresponding to the Ω loop in Ra-HBP2. The two hydroxyl groups and the two Arg bridged by Asp Ω could form an interacting network, further stabilizing the binding with LTB4. Two single mutants were therefore produced by replacing Arg 53 with threonine (R53T) and Arg 73 with alanine (R73A). A double mutant (R53T/R73A) was also produced by combining the 2 substitutions of the single mutants. A null mutant was also constructed by replacing serine 124 with threonine (S124T). […] Therefore, the affinity of this mutant for LTB4 should not be affected. These mutants and “wild type” Ir-LBP were expressed in 293T cells, and analyzed to determine their dissociation constant for LTB4.
# (§3) Site-directed mutagenesis of Ir-LBP in pCDNA3.1/V5-His-TOPO
# (§4) Subconfluent 293T cells in 35-mm diameter wells (Orange Scientific) were transfected with […] plasmid DNA and […] Fugene 6 (Roche Biochemicals) in Dulbecco's modified Eagle's medium (DMEM, Invitrogen) without FCS. The medium was harvested after 72 h. Pooled supernatants were cleared by centrifugation, concentrated 10-fold by filtration on 10000 NMWL membranes (Millipore), ultracentrifuged at 140,000 g before use, and finally stored at −80°C. Concentrated culture supernatants were analyzed by western blotting on a Hybond ECL membrane (GE healthcare) using an anti-V5 primary antibody (Invitrogen), an IgHRP conjugate as secondary antibody and the ECL detection reagent (GE healthcare) according to the manufacturer's instructions. The coding regions of Ir-LBP were amplified by PCR (94°C for 30 s, 56°C for 30 s, 72°C for 1 min.; 30 cycles) using ExTaq DNA Polymerase (Taqara). […]
# as §1, with “Protein precipitation with polyethylene glycol 8000 was used to separate bound from free histamine.” left out, “Competitive binding assays were performed using purified Ir-LBP with 1 nM of ^3H-LTB4 and an increasing amount of unlabelled competitor for 2 h.” left out
# [9] = system: T3, R53T/R73A; test: as above; details: SD
# T3 construct: pCDNA3.1/V5-His-TOPO, expressed in 293T cells
# Source text: as §2, §3, §4
# as §1, with “Protein precipitation with polyethylene glycol 8000 was used to separate bound from free histamine.” left out, “Competitive binding assays were performed using purified Ir-LBP with 1 nM of ^3H-LTB4 and an increasing amount of unlabelled competitor for 2 h.” left out
# [10] = system: T4, R73A; test: as above; details: SD
# T4 construct: pCDNA3.1/V5-His-TOPO, expressed in 293T cells
# Source text: as §2, §3, §4
# as §1, with “Protein precipitation with polyethylene glycol 8000 was used to separate bound from free histamine.” left out, “Competitive binding assays were performed using purified Ir-LBP with 1 nM of ^3H-LTB4 and an increasing amount of unlabelled competitor for 2 h.” left out
# [11] = system: T5, S124T; test: as above; details: SD
# T5 construct: pCDNA3.1/V5-His-TOPO, expressed in 293T cells
# Source text: as §2, §3, §4
# as §1, with “Protein precipitation with polyethylene glycol 8000 was used to separate bound from free histamine.” left out, “Competitive binding assays were performed using purified Ir-LBP with 1 nM of ^3H-LTB4 and an increasing amount of unlabelled competitor for 2 h.” left out
# T1 sequence (B7ZDG7 20-200 limits assumed): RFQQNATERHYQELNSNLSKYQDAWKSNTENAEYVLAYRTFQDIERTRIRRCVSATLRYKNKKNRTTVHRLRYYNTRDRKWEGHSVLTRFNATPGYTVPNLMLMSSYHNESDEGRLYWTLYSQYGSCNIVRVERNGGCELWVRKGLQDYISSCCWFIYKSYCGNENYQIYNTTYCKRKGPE
structure (smiles),measurement,setting,value
"CCCCC[C@H](O)/C=C/C=C\C=C\C=C\[C@@H](O)[C@@H](O)CCCC(=O)O [5(S), 6(R)-Lipoxin A4, 5 (S), 6 (R)-Lipoxin A4]",decrease of the binding of 1 nM 3H-LTB4 to Ir-LBP,[1],unable to compete
"CCCCC/C=C\C[C@@H](O)/C=C/C=C\C/C=C\CCCC(=O)O [12(R)-HETE, 12(R)-hydroxyeicosatetraenoic acid]",decrease of the binding of 1 nM 3H-LTB4 to Ir-LBP,[1],approximately 30%
"CCCCC[C@@H](/C=C/C=C\C/C=C\C/C=C\CCCC(=O)O)OO [15(S)-HpETE, 15(S)-hydroxyperoxyeicosatetraenoic acid]",decrease of the binding of 1 nM 3H-LTB4 to Ir-LBP,[1],unable to compete
O=C(O)C1(c2ccc3c(c2)OC[C@H](Cc2ccc(-c4ccccc4)cc2)[C@H]3O)CCCC1 [CP-105696],inhibition of the apoptosis delay induced by LTB4,[2],capable of inhibiting
CCCCC/C=C\C\C=C/C=C/C=C/[C@@H]1O[C@H]1CCCC(=O)OC [LTA4 methyl ester],decrease of the binding of 1 nM 3H-LTB4 to Ir-LBP,[1],unable to compete
"CCCCC/C=C\C[C@@H](O)/C=C/C=C/C=C\[C@@H](O)CCCC(=O)O [LTB4, Leukotriene B4]",Kd,[3],0.59 nM
same,IC50,"[1]; 1 nM 3H-LTB4, unlabelled competitor",5.7 nM
same,Kd,[4],~1 nM
same,Kd,[5],~23 nM
same,apoptosis levels versus untreated controls,[6],significantly lower
CCCCC/C=C\C\C=C/C=C/C=C/[C@@H](SC[C@H](NC(=O)CC[C@H](N)C(=O)O)C(=O)NCC(=O)O)[C@@H](O)CCCC(=O)O [LTC4],decrease of the binding of 1 nM 3H-LTB4 to Ir-LBP,[1],unable to compete
CCCCC/C=C\C\C=C/C=C/C=C/[C@@H](SC[C@H](N)C(=O)NCC(=O)O)[C@@H](O)CCCC(=O)O [LTD4],decrease of the binding of 1 nM 3H-LTB4 to Ir-LBP,[1],approximately 30%
CCCCC/C=C\C\C=C/C=C/C=C/[C@@H](SC[C@H](N)C(=O)O)[C@@H](O)CCCC(=O)O [LTE4],decrease of the binding of 1 nM 3H-LTB4 to Ir-LBP,[1],approximately 30%
COc1ccc(/C=C/CCCCOc2cccc(OCCCCC(=O)O)c2CCC(=O)O)cc1 [ONO-4057],inhibition of endothelial transmigration of neutrophils,[7],totally inhibits
COc1ccc(CCCCCCCCOc2ccc(C[S+]([O-])c3cccc(N)c3)nc2/C=C/C(=O)[O-])cc1.[Li+] (stereo not shown) [SB201146],inhibition of the apoptosis delay induced by LTB4,[2],capable of inhibiting
"CCCCC/C=C\C[C@@H](O)/C=C/C=C/C=C\[C@@H](O)CCCC(=O)O [^3H-LTB4, tritiated leukotriene B4]",Kd,[8],0.43 nM
same,Kd,[9],4.23 nM
same,Kd,[10],0.87 nM
same,Kd,[11],0.45 nM
